Legend:
[1] = system: ADHD; conditions: in vivo; cited from earlier work
[2] = system: patients who had been previously treated with methyl phenidate; conditions: melatonin 3 mg; cited from earlier work
[3] = system: patients with major depressive disorder; conditions: cited from earlier work
[4] = system: ADHD patients with insomnia disorders; assay: sleep induction by melatonin in ADHD patients with insomnia disorders first treated with methyl phenidate; format: in vivo, human; conditions: pure melatonin 2.5 mg
[5] = system: children with delayed sleep phase syndrome; conditions: 2.5 to 7.5 mg PO once daily before expected bedtime; cited from earlier work
[6] = system: ADHD patients; conditions: versus 54% of ADHD cases with concomitant insomnia; cited from earlier work
[7] = system: dopamine levels; conditions: normal therapeutic doses; healthy, adult men; cited from earlier work

## Clc1cccc(Cl)c1N=C1NCCN1 [clonidine]
[1]
  efficacy in treating ADHD: effective in treating ADHD

## COc1ccc2[nH]cc(CCNC(C)=O)c2c1 [melatonin, N-acetyl-5-methoxytryptamine]
[2]
  time for insomnia: significant reduction in the time for insomnia
[3]; concomitant slow-release melatonin at 9 pm versus fluoxetine alone, 4 weeks
  sleep quality scores: significantly improved sleep quality scores
[3]; concomitant slow-release melatonin with fluoxetine
  need for additional sleep medications: avoided the need for additional sleep medications
[4]
  activity as a sleep-inducing agent: active as a sleep-inducing agent
[5]
  average onset of sleep after melatonin administration: ≤ 1 h

## COC(=O)C(c1ccccc1)C1CCCCN1 (centres unmarked) [methylphenidate]
[6]
  problems relating to insomnia in treated ADHD patients: 64%
[7]
  dopamine levels (PET): increased their dopamine levels
